The values below come from article PMC10096123, “14-Substituted Diquinothiazines as a New Group of Anticancer Agents” (Molecules, 2023).

The test system of data set [1] is HCT116 cells. Kind of data set: 72-h MTT viability assay, HCT116. It is filed as cell-based, human. The note with it: Homo sapiens, HCT-116, 72 h, 72 h incubation, mean of 3 experiments +/-SD. From the text: (§1) The IC50 for cell viability was described with a dose of the drug, with a 50% reduction in the whole population, when compared to the untreated controls. The obtained results allow for a comparison of different compounds, using the same or different targeted cell lines. Cell survival fractions (SF), followed by the MTT 72-h viability assay for the HCT116 and SH-5YSY cells, are presented in the Supplementary File (Figure S1).
(§2) For cytological studies, human cancer cell lines were chosen, with special emphasis on the colorectal, HCT116, and neuroblastoma SH-5YSY cell lines, as well as lung normal epithelial BEAS-2B and cancer H1299 and A549 cancer cell lines (all obtained from the ATTC collection; Manassas, VA, USA). The cells were harvested under the standard conditions in incubator (5% CO2, 37 °C and 60% humidity; Panasonic model MCO-19 AIC). Cells were cultured in T75 mL sterile bottles (Sartedt), using DMEM-F12 medium (Merck, Poznań, Poland) supplemented with 10% of Fetal Bovine Serum (EURx, Gdańsk, Poland). During the experimental procedure, each cell line wasn’t more than 60–80% confluenced, no older than maximal number of passages 30. For adherent cell passages, the enzyme trypsin working solution, prepared in sodium phosphate buffer saline (PBS, pH = 7.4; PAN-Biotech Gmbh, Aidenbach, Germany), was used. The tested compounds were prepared as […] stocks in 100% DMSO (Merck, Poznań, Poland), and were stored at −20 °C. Before use in cytological studies, the working solution of each compound was prepared directly in complete DMEM-F12 medium. A positive-control, anticancer drug, etoposide (Merck, Poznań, Poland), was dissolved and prepared as solutions with doses of 20, 10, 5, 2.5, 1.25, 0.63 µM (0 µM for control, untreated cells in DMEM-F12 without any tested compound additions), respectively.
(§3) HCT116 and SH-5YSY cells collected after trypsinization were counted under the Bürker’s chamber, and 2000 or 5000 cells were seeded on each well of the 96-well-format sterile plate (Sarstedt, Nümbrecht, Germany), in 100 µL of complete DMEM-F12 medium, respectively. Twenty-four hours before compound addition, the cells were monitored directly on plates; only well-attached cells were used for treatments with background controls (DMSO with final maximal concentration of 1%) and untreated controls. The normal lung (BEAS-2B) and cancer (H1299 and […]) cell lines were cultured and prepared for viability MTT assay in similar way. To treat wells, 100 µL of tested compounds in fresh medium were added at concentration range of 100, 50, 25, 12.5, 6.25, 3.13 µM (0 µM for control, untreated cells in DMEM-F12 without any tested compound additions). An etoposide as a positive control, as anticancer drug, was prepared in similar way. Followed by 72 h of incubation, the viability assay was performed according to the producer protocol (Promega, Madison, WI, USA), where the medium and compounds were removed and cells were washed with PBS solution. A yellow tetrazolium salt (3-(4,5-dimethylthiazol-2-yl)-2,5-diphenyltetrazolium bromide solution (0.5 mg/mL) in serum and phenol red-free DMEM (Merck, Poznań, Poland) was added to each well on plates at a volume of 50 µL for 2–3 h of darkness, at 37 °C incubation. The purple formazan crystals were produced only by the viable cells, containing NAD (P)H-dependent oxidoreductase enzymes, which reduce the MTT. The crystals were dissolved in acidic (0.04 M HCl) 2-propanolol solution (Merck, Poznań, Poland) after addition of 75 µL of dissolving mixture to each well on plates for 5–10 min in darkness and at room-temperature (RT) incubation. The absorption at 570 nm was measured directly using multiplate reader (Epoch, BioTek, Winooski, VT, USA). Each time, the biological experiments were repeated three times.
(§4) Obtained absorbance was analyzed for proliferation and survival fraction (SF) assessments, where tested samples were compared to the untreated controls (100%). […]

In data set [2] the test system is BEAS-2B cells. Briefly: 72-h MTT viability assay, normal lung epithelial BEAS-2B. It is filed as cell-based, human. The following applies: Homo sapiens, BEAS-2B, 72 h incubation, mean of 3 experiments +/-SD, no effect = viability (SF) similar to control, about 100%.
Source text: as §1, §2, §3, §4

Data set [3] deals with H1299 cells. Briefly: 72-h MTT viability assay, H1299. It is filed as cell-based, human. The following applies: Homo sapiens, NCI-H1299, 72 h, 72 h incubation, mean of 3 experiments +/-SD.
Source text: as §1, §2, §3, §4

Data set [4] relates to SH-SY5Y cells. Kind of data set: 72-h MTT viability assay, SH-SY5Y. It is filed as cell-based, human. The note with it: Homo sapiens, SH-SY5Y, 72 h incubation, mean of 3 experiments +/-SD, no effect = viability (SF) similar to control, about 100%.
Source text: as §1, §2, §3, §4

Data set [5] relates to A549 cells. Briefly: 72-h MTT viability assay, A549. The format is cell-based, human. The following applies: Homo sapiens, A549, 72 h, 72 h incubation, mean of 3 experiments +/-SD.
Source text: as §1, §2, §3, §4

Data set [6] has as its system HCT116, SH-SY5Y, A549, H1299 cell lines. Briefly: 72-h MTT viability assay, all cell lines used in the study (summary statements). The format is cell-based, human. The note with it: HCT116 and SH-SY5Y, in words.
Source text: as §1, §2
HCT116 and SH-5YSY cells collected after trypsinization were counted under the Bürker’s chamber, and 2000 or 5000 cells were seeded on each well of the 96-well-format sterile plate (Sarstedt, Nümbrecht, Germany), in 100 µL of complete DMEM-F12 medium, respectively. Twenty-four hours before compound addition, the cells were monitored directly on plates; only well-attached cells were used for treatments with background controls (DMSO with final maximal concentration of 1%) and untreated controls. The normal lung (BEAS-2B) and cancer (H1299 and […]) cell lines were cultured and prepared for viability MTT assay in similar way. […] The absorption at 570 nm was measured directly using multiplate reader (Epoch, BioTek, Winooski, VT, USA). […]
as §4

`CC(=O)NCCN1c2c(cnc3ccccc23)Sc2cnc3ccccc3c21` [Compound 5a, 14-acetylaminoethyldiquinothiazine]: the melting point was in the range of 89 to 90 °C. The compound also yielded a 50% inhibitory concentration (IC50) in data set [1] of 25.9 ± 4.87 µM. The compound further gave an IC50 in data set [2] of 108 ± 9.83 µM. The same compound displayed an IC50 in data set [3] of 26.2 ± 1.99 µM. The compound further came in with a half-maximal inhibitory concentration (IC50) in data set [4] of 24.7 ± 5.44 µM. Half-maximal inhibition in data set [5] (IC50) was put at 71.1 ± 14.7 µM. The “anticancer activity (ranking within the series)” value in data set [6] is listed as “lowest anticancer activity”.
